Measured values as given in US6905852B1, “Herbicide-resistant protoporphyrinogen oxidase isolated from Nicotiana tabacum” (Nihon Nohyaku Co., Ltd., priority 1997, dated 2005).
Converted amounts (≈) assume the structure as drawn.

Assays:
[1] = system: non-transformed tobacco plant; test: Leaf disk method, bleaching; type: cell-based, N. Tabacum var. SR1
Experimental: From the transformed plant with which the confirmation of introduction of gene was finished, and non-transformed plant used as a control, a leaf almost the same position of the leaf was picked and 9 mm diameter leaf disks were prepared, and floated on a dish in which 0, 125, 250, 1,250, 2,500, 5,000, 12,500 nM of compound A aqueous solution were contained. After incubation at 27° C. for one week under continuous strong light, the bleaching of the leaf disks was observed, and the permissive concentration to compound A was calculated. As a result (Table 7), in case that the tolerant type of protoporphirinogen oxidase cDNA from tobacco was introduced by pBI-NtPX-RC, more than 100 times of tolerance was observed comparing to the control non-transformed plant. However, in case that rsistant type cDNA from Arabidopsis thaliana was introduced by pBI-AtPX-RC, 4 times of resistance was observed comparing to the control, and in case that the wild type cDNA was introduced, high resistance was not observed in each case.

[2] = molecular target: T1, protoporphyrinogen oxidase extracted from the sensitive cell line (Nicotiana tabacum, UniProt O24163, A174P/A191P/T382S); test: Protoporphyrinogen oxidase activity of crude enzyme preparation; type: biochemical
T1 construct: from tissue; host or cells: tobacco callus, herbicide-sensitive cell line; crude particulate fraction
T1 sequence (O24163 51-548 A174P/A191P/T382S): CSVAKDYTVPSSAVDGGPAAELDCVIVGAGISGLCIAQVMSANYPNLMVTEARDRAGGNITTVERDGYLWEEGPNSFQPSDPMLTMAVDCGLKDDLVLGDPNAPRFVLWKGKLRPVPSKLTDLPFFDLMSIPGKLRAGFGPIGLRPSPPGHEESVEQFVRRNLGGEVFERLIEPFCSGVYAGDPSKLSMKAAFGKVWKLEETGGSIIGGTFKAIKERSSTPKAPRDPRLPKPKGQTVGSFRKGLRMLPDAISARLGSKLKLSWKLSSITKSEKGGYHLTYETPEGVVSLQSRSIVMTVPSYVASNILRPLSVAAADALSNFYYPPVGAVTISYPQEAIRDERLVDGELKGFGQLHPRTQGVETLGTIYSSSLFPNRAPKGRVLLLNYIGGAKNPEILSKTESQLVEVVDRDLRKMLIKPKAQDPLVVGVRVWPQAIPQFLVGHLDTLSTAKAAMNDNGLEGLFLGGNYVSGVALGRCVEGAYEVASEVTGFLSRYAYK
Experimental: (§1) Using the same procedures described in Nicolaus, B. et al. (1993) in “Target Assay for Modern Herbicide and Related Phytotoxic Compound” Lewis Publishers, pp. 35-41, five volume of extraction buffer (50 mM Tris-HCl (pH 7.5), 0.5 M sucrose, 0.2% BSA, 1 mM EDTA) was added to callus which was cultured in MS solid medium for one month, and homogenized. After filtration with gauze, filtrate was centrifuged with 10,000×g at 4° C. for 5 minutes. Thus obtained precipitate was suspended with 25 ml of ethanol buffer, centrifuged with 150×g at 4° C. for 2 minutes. Thus obtained supernatant was centrifuged with 4,000×g at 4° C. for 15 minutes, and the precipitate was dissolved with 2 ml of 20% glycerol. The protein amount in the obtained crude enzyme preparation was measured with the protein measuring kit (manufactured by Bio-Rad Co., Ltd.).
(§2) The powder of sodium amalgam was prpared as follows. Into a round flask of 500 ml volume, 13 g of mercury and 0.5 g of thin-layer metal sodium were added, and equilibrated with nitrogen gas for 5 minutes, and it was shaked for 5 minutesthen. […] of protoporphyrin IX was dissolved into 10 mM KOH containing 15 ml of 20% ethanol, incubated at 4° C. To 4 ml of the protoporphyrin IX solution, equal amount of reaction mixture (0.1 M MES, 50 mM ascorbic acid) was added, and 16 mg of sodium amalgam freshly prepared was added, and shaken vigorously under nitrogen gas in a dark. The reaction mixture was filtered with a three-layer glass filter in a dark, and diluted 2.5 times with 0.1 M MES (pH4.5), and divided into 1 ml each in a light-shielded test tube and stored at −80° C.
(§3) 3 ml of reaction buffer (100 mM Tris-HCl (pH 7.6), 1 mM EDTA, 5 mM DTT, 0.03% Tween 80) were added to a cell of a fluorescence spectrophotometer, then, the crude enzyme prparation was added at the final concentration of 0.1 mg protein/ml, and it was heated gradually to room temperature. After heating, protoporphyrinogen IX was added at the final concentration of 2 μM, and the gaseous phase was replaced with nitrogen gas, and a reaction was started. Fluorescence was monitored with a spectrophotometer for 30 minutes starting 10 minutes after the start of the reaction, and enzyme activity was measured (Ex:405 nm,Em:631.5 nm).
(§4) Activity of protoporphyrinogen oxidase in crude enzyme preparation which was extracted from a sensitive tobacco and ETR-245 and the extent of inhibition by compound A were compared (Table 4). As a result, activity of the crude enzyme preparation derived from the sensitive strain was 2.39 units, and the activity of the crude enzyme liquid derived from ETR-245 strain was 2.85 units, and there was no large difference between the activities. […] Incidentally, since the reaction mixture became turbidat the concentration of more than 5,000 nM, it was impossible to measure the fluoroescence. From the above results, the resistant mechanism in ETR-245 to the photobleaching herbicide could be thought that the some mutations in the structure of the enzyme occurred, and was not over production of protoporphyrinogen oxidase which was a target enzyme of photobleaching herbicide.

[3] = molecular target: T2, protoporphyrinogen oxidase extracted from ETR-245 (Nicotiana tabacum, UniProt O24163, A231V); test: as above; type: biochemical
T2 construct: from tissue; host or cells: tobacco callus, herbicide-tolerant cell line ETR-245; crude particulate fraction
T2 sequence (O24163 51-548 A231V): as the sequence (O24163 51-548 A174P/A191P/T382S) above, with P124A, P141A, A181V, S332T counted along it
Experimental: as §1, §2, §3, §4

ETR-056 = test: MIC on MS agar medium, cross-resistance to herbicides; type: cell-based, Nicotiana tabacum
From the text: (§5) Further, cross-resistance of a resistant strain tolerant to herbicides with various modes of action was examined. Sensitivity to fomesafen (trade mark: FLEX) and oxadiazon (trade mark: RONSTAR), which are photobleaching herbicide and accumulate protoporphyrin IX; pyrazoxyfen (trademark: PAICER) which is a chlorophyll synthesis inhibitor and causes bleaching; DPX-84 and bialaphos (trademark: BASTA) and glyphosate (trademark: ROUNDUP) which are an inhibitor of the amino acid synthesis; butachlor (trademark: MACHETE) which is a protein synthesis inhibitor; propanil (trademark: STAM) which is an inhibitor of light synthesis photochemical system II and paraquat (trademark: PREEGLOX) which is an inhibitor of photosystem I and produces an active oxygen was compared. Into MS agar medium containing each herbicides, each resistant strain was transplanted and minimum inhibition concentration (MIC) was measured. […] From the above results, ETR-056 was thought to have resistance to an active oxygen caused by overproduction of superoxide dismutase, and ETR-253 was thought to have resistance to many herbicides caused by decreasing of a membrane permeability, and ETR-245 was thought to have resistance caused by mutation of a target enzyme or overproduction of a target enzyme.
(§6) MIC of compound A to the sensitive cell lines, ETR-056, ETR-245 and ETR-253 were measured.

Sensitive strain = test: as above; type: cell-based, Nicotiana tabacum; settings: sensitive cell line
From the text: as §5, §6

ETR-253 = test: as above; type: cell-based, Nicotiana tabacum
From the text: as §5, §6

ETR-245 = test: as above; type: cell-based, Nicotiana tabacum
From the text: as §5, §6

## CCOC(=O)COc1cc(-c2nn(C)c(OC(F)F)c2Cl)c(F)cc1Cl [Compound A, ethyl 2-chloro-5-(4-chloro-5-difluoromethoxy-1-methyl-1H-pyrazol-3-yl)-4-fluorophenoxyacetate]
[1]; Introduced gene: None (reference)
  Resistance: 1 X
[1]; Introduced gene: None, one week, continuous strong light
  Permission conc. to compound A: 125 nM
[2]
  IC50: 48 nM
[2]; Sensitive, 10 nM, 1 unit = 1 nM protoporphyrin IX/min/mg protein
  Enzyme activity(unit): 4.32 unit
[2]; Sensitive, 20 nM
  Enzyme activity(unit): 3.62 unit
[2]; Sensitive, 40 nM
  Enzyme activity(unit): 1.84 unit
[2]; Sensitive, 100 nM
  Enzyme activity(unit): 0.00 unit
[2]; Sensitive, 500 nM
  Enzyme activity(unit): 0.00 unit
[2]; Sensitive, 1,000 nM
  Enzyme activity(unit): 0.00 unit
[2]; Sensitive, 2,400 nM
  Enzyme activity(unit): 0.00 unit
[2]; Sensitive, 5,000 nM
  Enzyme activity(unit): 0.00 unit
[3]; ETR-245, 10 nM, 1 unit = 1 nM protoporphyrin IX/min/mg protein
  Enzyme activity(unit): 3.59 unit
[3]; ETR-245, 40 nM
  Enzyme activity(unit): 4.41 unit
[3]; ETR-245, 100 nM
  Enzyme activity(unit): 2.21 unit
[3]; ETR-245, 500 nM
  Enzyme activity(unit): 3.49 unit
[3]; ETR-245, 1,000 nM
  Enzyme activity(unit): 2.85 unit
[3]; ETR-245, 2,400 nM
  Enzyme activity(unit): 2.48 unit
[3]; ETR-245, 5,000 nM
  Enzyme activity(unit): 1.56 unit
[3]; IC50 value (nM), crude enzyme from ETR-245
  IC50: ≥ 5000 nM
[3]; ratio of IC50 values
  resistance at enzyme level (ETR-245 vs sensitive): more than 100 times
ETR-056
  MIC: over 2,400 nM
Sensitive strain
  MIC: 5 nM (≈ 2.07 ng/mL)
ETR-253
  MIC: over 2,400 nM
ETR-245
  MIC: over 2,400 nM
